Experimental data reported in PMC12392461, “Beyond Estrogenicity: A Comparative Assessment of Bisphenol A and Its Alternatives in In Vitro Assays Questions Safety of Replacements” (Environmental Science & Technology, 2025).
Read-outs that look alike come from different tables or passages of the source.

Experiments:
Tox21 assays [1] = settings: re-evaluated Tox21 data, ref Adamovsky et al 2024, cited from earlier work
Tox21 assays [2] = test: Re-evaluated Tox21 data (Adamovsky et al.), REPBPA and SRbaseline; settings: for REPBPA: Relative Effect Potency; for SRbaseline: Specificity Ratio;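 as to all read-outs here: published Tox21 results reanalysed with a revised model predicting baseline toxicity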
From the text: We also reanalyzed the Tox21 data of Adamovsky et al. with the updated baseline toxicity prediction model (Table S2).

[3] = Abiotic CYP (aCYP) oxidation, remaining parent compound (Cparent-Ratio)
Experimental: The mixtures were adjusted to a final volume of 100 μL with acetonitrile (ACN). The reaction mix was incubated for 15 min at 30 °C and 1000 rpm on a Bioshake iQ orbital shaker from QInstruments (Jena, Germany). Additionally, a mixture without test compounds was prepared as a control. Subsequently, 10 μL of the reaction mixture was transferred into a conical dosing vial and evaporated under a nitrogen flow.
For chemical analysis, 10 μL of the reaction mixture was concentrated under vacuum (CentriVap, Labconco, Kansas City, MO, USA), diluted to 1 mg/L in ACN or ethyl acetate. The chemical analysis of the reaction mixtures was performed using liquid chromatography (LC) and gas chromatography (GC) coupled with various detection techniques, preferably Multiple Reaction Monitoring (MRM). Data acquisition and processing were carried out using the software MassHunter. Quantification was based on external calibrations.
The Cparent-Ratio quantifies the extent of oxidation of the parent compound after the abiotic CYP reaction. It was calculated as the ratio of the parent compound concentration after oxidation (C parent, after oxidation) to its concentration before oxidation (C parent, before oxidation) as shown in eq . […] 8 Cparent‐Ratio=Cparent,after oxidation/Cparent,before oxidation

keratinocytes = test system: keratinocytes; design: method as in Son et al.; settings: ref Son et al.; cited from earlier work
[4] = design: method as in ref EFSA; settings: in vitro and in vivo data; ref EFSA; cited from earlier work
[5] = design: method as in ref 12 (ECHA); settings: ref 12 (ECHA), cited from earlier work
Estrogen Receptor ERα = molecular target: T1, Estrogen Receptor ERα (Homo sapiens, UniProt P03372); test: cell-based; settings: This Study
T1 sequence (P03372 311-547 limits assumed): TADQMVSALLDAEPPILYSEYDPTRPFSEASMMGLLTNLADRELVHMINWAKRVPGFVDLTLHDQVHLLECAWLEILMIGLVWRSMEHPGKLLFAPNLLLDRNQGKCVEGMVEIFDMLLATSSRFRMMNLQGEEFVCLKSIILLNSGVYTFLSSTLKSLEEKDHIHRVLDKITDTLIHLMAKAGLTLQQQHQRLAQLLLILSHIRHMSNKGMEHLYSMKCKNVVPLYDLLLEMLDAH
From the text: All bioassay media components and the ERα-UAS-bla GripTite and PPARγ-UAS-bla cells were obtained from Thermo Fisher Scientific (Waltham, MA, USA). AREc32 reporter gene cells based on MCF7 were provided by C. Roland Wolf (Cancer Research UK); AhR CALUX cells (H4L7.5c2 derived from H4IIe) were provided by Michael Denison (UC Davis, USA); and SH-SY5Y cells were purchased from Sigma-Aldrich.
Cell culture conditions and bioassay protocols including response detection are provided in Text S2.1–2.4 and Table S3. − Cell viability was determined from cell confluency using an IncuCyte S3 Live-Cell Analysis System (Sartorius AG, Essen, Germany) before and after exposure, except for SH-SY5Y cells (live–dead staining with Nuclear Green LcS1 and propidium iodide, Abcam, UK). For metabolic activation experiments, cell viability was assessed using the ToxBLAzer DualScreen Kit (Thermo Fisher Scientific) to capture the remaining toxicity in ERα-UAS-bla GripTite after treatment with the aCYP catalyst (details in Text S2.4).
For ARE, the concentration that triggered an induction ratio of 1.5 (ECIR1.5) was used as the benchmark value, as detailed in Text S2.5. IC10 values also served as a threshold for data analysis in all assays; only concentrations below IC10 were considered when deriving EC10 or ECIR1.5.
The maximum efficacy (Emax%) refers to the maximum of the log–logistic concentration–response curve attained by test chemicals compared to the reference chemical’s maximum and was obtained for both ERα and PPARγ. […]
S2: Cell culture and bioassays
S2.1: Cell Culturing Conditions
All suppliers and sources are given in detail in SI-Excel S3. The bioassay media for the different assays were prepared as follows: Assay medium for ER alpha-UAS-bla GripTite (ERα) and […]
2% charcoal-stripped FBS, and 100 U/mL penicillin-streptomycin. […]
S2.2: Cell Seeding and Incubation. For all bioassays, cell suspensions in the respective assay medium were dispensed into each well of 384-well plates using a MultiFlo Dispenser (Biotek, (now Agilent), Winooski, VT, U.S.). After seeding, the plates were incubated at 37° C and 5% CO₂ for […]. The final cell densities and plate types were as follows: Black poly-D-lysine […]
6500 cells/well, ERα: 5000 cells/well. White 384-well plates with a clear bottom (Product No. […]
S2.3: Chemical Dosing and Assay Analysis Procedures.

ERα = settings: ref Pelch et al 2019; cited from earlier work
[6] = TOX21_AR_LUC_MDAKB2_Antagonist_0,5nM_R1881
[7] = TOX21_PPARg_BLA_antagonist_ratio

SMILES: Cc1cc(C(C)(C)c2ccc(O)c(C)c2)ccc1O [BPC]
- EC10 (Tox21 assays [1]; ATG_PPARg_TRANS_up): 1880 nM
- EC10 (Tox21 assays [1]; [6]): 850 nM
- EC10 (Tox21 assays [1]; [7]): 3090 nM
- REPBPA (Tox21 assays [2]; ATG_PPARg_TRANS_up): 0.85
- SRbaseline (Tox21 assays [2]; ATG_PPARg_TRANS_up): 17.78
- REPBPA (Tox21 assays [2]; [6]): 2.85
- SRbaseline (Tox21 assays [2]; [6]): 39.40
- SRbaseline (Tox21 assays [2]; [7]): 10.83

SMILES: O=S(=O)(c1ccc(O)cc1)c1ccccc1O [2, 4BPS]
- % Loss ([3]; Table S9, loss of parent after aCYP oxidation): -4.66%
- Cparent-Ratio Mean ([3]; Table S9, mean of two replicate experiments): 1.05
- Cparent-Ratio Rep.1 % ([3]; Table S9, replicate 1): 108.33%
- Cparent-Ratio Rep.1 ([3]; Table S9, replicate 1, as fraction): 1.08
- Cparent-Ratio Rep.2 % ([3]; Table S9, replicate 2): 100.98%
- Cparent-Ratio Rep.2 ([3]; Table S9, replicate 2, as fraction): 1.01

SMILES: CC1(C)C(O)C(C)(C)C1O (centres unmarked) [TMCD, 2,2,4,4-tetramethyl-1,3-cyclobutanediol]
- concentration with statistically significant reduced cell viability (keratinocytes): 350 µM
- genotoxicity categorisation [4]: nongenotoxic
- degradation in OECD guideline test 301B ([5]; aqueous solution): no degradation
- time reported to remain stable [5]: 22 days
- parent compound during aCYP oxidation [3]: remained unchanged

SMILES: O=S(=O)(c1ccc(O)cc1)c1ccccc1O [24BPS]
- Efficacy % (Estrogen Receptor ERα): 19.00%
- EC10 (Estrogen Receptor ERα; ERα, in M): 1.98E-05
- REPBPA (Estrogen Receptor ERα; relative estrogenic potency vs BPA): 1.87E-02
- Efficacy % (ERα): 24.30%
